# In article PMC9323974, “Palladium(II) Complexes of Substituted Salicylaldehydes: Synthesis, Characterization and Investigation of Their Biological Profile” (Pharmaceuticals, 2022):
# How the values were obtained:
# [1] = ABTS radical cation scavenging; conditions: compound 0.1 mM
# Experimental: S1 Antioxidant biological assay
# The antioxidant activity of the compounds was evaluated via their ability to scavenge in […]
# vitro free radicals such as DPPH and ABTS and to reduce H2O2. […]
# S1.2 Assay of radical cation ABTS–scavenging activity
# The ABTS assay was performed to determine the activity of the compounds to scavenge the […]
# radical cation ABTS. Initially, a water solution of ABTS was prepared (2 mM). ABTS radical cation […]
# (ABTS+·) was produced by the reaction of ABTS stock solution with potassium persulfate (0.17 […]
# mM) and the mixture was stored in the dark at room temperature for 12–16 h before its use. The […]
# ABTS was oxidized incompletely because the stoichiometric reaction ratio of ABTS and potassium […]
# persulfate is 1:0.5. The absorbance became maximal and stable only after more than 6 h of reaction […]
# although the oxidation of the ABTS started immediately. The radical was stable in this form for […]
# more than 2 days when allowed to stand in the dark at room temperature. Afterwards, the ABTS+· […]
# solution was diluted in ethanol to an absorbance of 0.70 at 734 nm and 10 μL of diluted compounds or standards (0.1 mM) in DMSO were added. The absorbance was recorded out exactly 1 min after […]
# initial mixing [S1]. The ABTS radical scavenging activity was expressed as the percentage inhibition of the absorbance of the initial ABTS solution (ABTS%). […]
# [2] = system: Xanthomonas campestris ATCC 1395; test: MIC determination; format: cell-based; conditions: 24 h
# Experimental: (§1) S2 Antibacterial activity
# (§2) The antimicrobial activity of the compounds was evaluated by determining their respective MIC values towards two Gram–(–) (Escherichia coli NCTC 29212 (E. coli) and Xanthomonas campestris ATCC 1395 (X. campestris)) and two Gram–(+) (Staphylococcus aureus ATCC 6538 (S. aureus) and Bacillus subtilis ATCC 6633 (B. subtilis)) bacterial species. Cultures of these microbial strains were grown on a rich selective agar medium and stored at 4°C. The selective media used were Nutrient Agar or Broth for B. subtilis and S. aureus, Yeast Mold Agar or Broth for X. campestris and Luria Agar or Broth for E. coli. Cells picked from the surface of the stored cultures were used to initiate liquid pre–cultures of the same selective medium at an initial turbidity of roughly 1 McFarland unit. Pre–cultures were incubated for 24 h in a rotary shaking incubator and subsequently they were used to inoculate the test cultures used for the determination of MIC at an initial turbidity of 0.5 McFarland units. The test cultures consisted of Mueller –Hinton broth (Deben Diagnostics Ltd) containing different concentrations of the compounds.
# (§3) Different concentrations were achieved as follows: the compounds were freshly dissolved in DMSO to a concentration of 1 mg mL–1 and they were diluted with DMSO, using the method of progressive double dilution. Therefore, working solutions with decreasing concentrations of the compounds under investigation were achieved. The working solutions were subsequently diluted to the final desired concentration by addition to the growth medium at a proportion of 2:98. MIC values were determined as the lowest concentrations of the tested compounds that inhibited visible growth of each respective organism after a 24 h incubation [ S3]. Bacterial growth was determined by measuring the turbidity of appropriately diluted cultures at 600 nm with reference to equally diluted sterile growth medium and the inhibition achieved was calculated by comparing the turbidity of each culture to the average of the turbidity of three non–inhibited cultures. All test cultures were grown in triplicates and for the determination of MIC, growth had to be inhibited in at least two cultures of the triplicate. Incubation temperature at all stages was 37°C except for X. campestris that was cultivated at 28°C [S4].
# [3] = system: Bacillus subtilis ATCC 6633; test: MIC determination; format: cell-based; conditions: 24 h; for MIC: value in parentheses, read-out: MIC B. subtilis
# Experimental: as §1, §2, §3
# [4] = system: Escherichia coli NCTC 29212; test: MIC determination; format: cell-based; conditions: 24 h; for MIC: value in parentheses, read-out: MIC E. coli
# Experimental: as §1, §2, §3
# [5] = system: Staphylococcus aureus ATCC 6538; test: MIC determination; format: cell-based; conditions: 24 h; for MIC: value in parentheses, read-out: MIC S. aureus
# Experimental: as §1, §2, §3
# [6] = target: T1, HSA (Homo sapiens, UniProt P02768); test: Competitive HSA-fluorescence studies with warfarin and ibuprofen; format: binding
# T1 construct: purchased Sigma-Aldrich Co
# T1 sequence (P02768 25-609): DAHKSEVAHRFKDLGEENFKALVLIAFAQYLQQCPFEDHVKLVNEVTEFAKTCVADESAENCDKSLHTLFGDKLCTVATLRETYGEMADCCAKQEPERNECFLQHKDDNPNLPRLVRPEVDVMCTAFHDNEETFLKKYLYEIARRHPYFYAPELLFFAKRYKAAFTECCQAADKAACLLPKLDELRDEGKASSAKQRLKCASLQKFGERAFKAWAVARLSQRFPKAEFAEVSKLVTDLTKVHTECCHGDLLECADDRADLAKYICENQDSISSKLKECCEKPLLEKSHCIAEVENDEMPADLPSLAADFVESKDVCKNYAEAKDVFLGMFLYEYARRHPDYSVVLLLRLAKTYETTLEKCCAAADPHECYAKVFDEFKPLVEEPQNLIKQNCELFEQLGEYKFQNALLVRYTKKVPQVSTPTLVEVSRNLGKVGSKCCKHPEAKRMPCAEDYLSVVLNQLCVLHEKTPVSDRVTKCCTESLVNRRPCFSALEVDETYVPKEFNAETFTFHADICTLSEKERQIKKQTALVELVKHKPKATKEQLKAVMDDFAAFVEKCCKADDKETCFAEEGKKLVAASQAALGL
# [7] = system: EB-DNA adduct (CT DNA); test: EB-displacement from EB-DNA (fluorescence); format: binding, calf; conditions: for ΔΙ/Ι0 (%) EB-DNA fluorescence quenching: [EB] = 20 μM, [DNA] = 26 μM; for EB-DNA relative fluorescence emission intensity, % of the initial: λemission = 592 nm, final value; for kq (EB-DNA quenching constant): τo = 23 ns
# Experimental: page 8: […] spectroscopy, viscosity measurements and fluorescence emission spectroscopy studies. […] UV-vis spectroscopy was used for the evaluation of the interaction of the compounds with CT DNA, and specifically the possible binding modes of the compounds to CT DNA. Control experiments with DMSO were performed and no changes in the spectra of CT DNA were observed. In order to determine the binding mode, the UV-vis spectra of the compounds were […] concentrations of CT DNA for diverse r (r = [complex]/[DNA]) values. Effective use of the changes […] compounds were calculated by the Wolfe-[…] equation (eq. […] εf) versus [DNA]: (eq. S1) where [DNA] = the concentration of DNA in base pairs, ε f= the extinction coefficient for the free compound at the corresponding λmax, εA = Aobsd/[compound] and εb= the extinction coefficient for the compound in the fully bound form. K b is given by the ratio of slope to the y intercept in plots [DNA]/(εA-εf) versus [DNA]. S3.2 CT DNA-binding studies by viscosity measurements […] presence of increasing amounts of the compounds. The experiments were executed at room temperature and the measurements are devised in a plot (η/η 0)1/3 versus r, where η = the viscosity of DNA in the presence of the compound, and η0 = the viscosity of neat DNA in buffer solution. […] In order to determine and confirm the DNA-binding mode of the compounds, a competitive study with EB as an intercalating marker is performed by fluorescence emission spectroscopy. Therefore, the EB-displacing ability of the compounds from its EB-DNA conjugate was examined. […] solution (150 mM NaCl and 15 mM trisodium citrate at pH 7.0). The potential intercalation of the compounds between the DNA-bases was studied by the addition of a certain amount of the 8 (1 picture or pasted object on this page, not shown here) page 9: compound solution into the EB-DNA adduct solution. The influence of the compounds on the EB- DNA solution was monitored through the changes of the fluorescence emission spectra at excitation wavelength (λex) at 540 nm [S6]. […] Bearing that in mind, the observed quenching of the EB-DNA solution is evidently associated to the displacement of EB from its EB-DNA adduct. The quenching efficiency (KSV) for each compound was assessed according to the Stern - Volmer equation (eq. S2) [S6]: (eq. S2) where I0 and I = the fluorescence emission intensities of EB-DNA in the absence and presence of the quencher, respectively, [Q] = the concentration of the quencher (i.e. compounds). K SV is obtained from the Stern-Volmer plots by the slope of the diagram I0/I versus [Q]. Taking τ0 = 23 ns […] M-1s-1) of the compounds can be determined according to e quation S3: KSV = kqτo (eq. S3) 9 (1 picture or pasted object on this page, not shown here)
compound,measurement,setting,value
"CCN(CC)c1ccc(C=O)c([O][Pd][O]c2cc(N(CC)CC)ccc2C=O)c1 [Complex 1, [Pd(4-Et2N-salo)2]]",ABTS%,[1],97.05 ± 0.48%
same,MIC X. campestris,[2],200 µg/mL
same,MIC X. campestris,[2]; value in parentheses,407 µM
same,MIC B. subtilis,[3],100 µg/mL
same,MIC,[3],204 µM
same,MIC E. coli,[4],100 µg/mL
same,MIC,[4],204 µM
same,MIC S. aureus,[5],100 µg/mL
same,MIC,[5],204 µM
same,"HSA-binding constant K, Marker: Ibuprofen",[6],1.86 (±0.12) × 10^5 M^−1
same,"HSA-binding constant K, No Marker",[6],1.25 (±0.06) × 10^5 M^−1
same,"HSA-binding constant K, Marker: Warfarin",[6],6.89 (±0.28) × 10^4 M^−1
same,"KSV (Stern–Volmer constant), EB-DNA",[7],1.03 (±0.02) × 10^5 M^−1
same,ΔΙ/Ι0 (%) EB-DNA fluorescence quenching,[7],51.2%
same,"EB-DNA relative fluorescence emission intensity, % of the initial",[7],48.8%
same,kq (EB-DNA quenching constant),[7],4.49 (±0.09) × 10^12 M^−1s^−1
"O=Cc1cc(Br)cc(Br)c1[O][Pd][O]c1c(Br)cc(Br)cc1C=O [Complex 2, [Pd(3,5-diBr-salo)2]]",ABTS%,[1],50.46 ± 0.91%
same,MIC X. campestris,[2],25 µg/mL
same,MIC X. campestris,[2]; value in parentheses,38 µM
same,MIC B. subtilis,[3],25 µg/mL
same,MIC,[3],38 µM
same,MIC E. coli,[4],25 µg/mL
same,MIC,[4],38 µM
same,MIC S. aureus,[5],25 µg/mL
same,MIC,[5],38 µM
same,"HSA-binding constant K, Marker: Ibuprofen",[6],3.23 (±0.13) × 10^5 M^−1
same,"HSA-binding constant K, No Marker",[6],4.12 (±0.15) × 10^5 M^−1
same,"HSA-binding constant K, Marker: Warfarin",[6],1.43 (±0.09) × 10^5 M^−1
same,"KSV (Stern–Volmer constant), EB-DNA",[7],1.00 (±0.02) × 10^5 M^−1
same,ΔΙ/Ι0 (%) EB-DNA fluorescence quenching,[7],64.8%
same,"EB-DNA relative fluorescence emission intensity, % of the initial",[7],35.2%
same,kq (EB-DNA quenching constant),[7],4.35 (±0.10) × 10^12 M^−1s^−1
"O=Cc1cc(Cl)cc(Cl)c1[O-].O=Cc1cc(Cl)cc(Cl)c1[O-].[Pd+2] [Complex 3, [Pd(3,5-diCl-salo)2]]",ABTS%,[1],63.45 ± 0.38%
same,MIC X. campestris,[2],25 µg/mL
same,MIC X. campestris,[2]; value in parentheses,51 µM
same,MIC B. subtilis,[3],50 µg/mL
same,MIC,[3],103 µM
same,MIC E. coli,[4],25 µg/mL
same,MIC,[4],51 µM
same,MIC S. aureus,[5],25 µg/mL
same,MIC,[5],51 µM
same,"HSA-binding constant K, Marker: Ibuprofen",[6],3.78 (±0.14) × 10^5 M^−1
same,"HSA-binding constant K, No Marker",[6],4.10 (±0.17) × 10^5 M^−1
same,"HSA-binding constant K, Marker: Warfarin",[6],2.47 (±0.09) × 10^5 M^−1
same,"KSV (Stern–Volmer constant), EB-DNA",[7],7.53 (±0.18) × 10^4 M^−1
same,ΔΙ/Ι0 (%) EB-DNA fluorescence quenching,[7],60.6%
same,"EB-DNA relative fluorescence emission intensity, % of the initial",[7],39.4%
same,kq (EB-DNA quenching constant),[7],3.27 (±0.08) × 10^12 M^−1s^−1
